One test concerns the target human TLR9 (Homo sapiens (Human), UniProt Q9NR96). Nature of the test: TLR9 inhibition reporter assay (HEK-Blue cells, SEAP reporter, ODN2006 stimulation). (In general: In a reporter assay the amount or activity of a reporter protein is the signal.);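 also: compounds tested over 0.05 nM to 50 µM, 22 h incubation, inhibition taken as SEAP signal drop from agonist plus DMSO wells toward a known inhibitor control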
For another test, the target named is human TLR7 (Homo sapiens (Human), UniProt Q9NYK1). Nature of the test: TLR7 inhibition reporter assay (HEK-Blue cells, SEAP reporter, gardiquimod stimulation). The test is classed as cell-based.
Sequence of human TLR7 (Q9NYK1 27-1049): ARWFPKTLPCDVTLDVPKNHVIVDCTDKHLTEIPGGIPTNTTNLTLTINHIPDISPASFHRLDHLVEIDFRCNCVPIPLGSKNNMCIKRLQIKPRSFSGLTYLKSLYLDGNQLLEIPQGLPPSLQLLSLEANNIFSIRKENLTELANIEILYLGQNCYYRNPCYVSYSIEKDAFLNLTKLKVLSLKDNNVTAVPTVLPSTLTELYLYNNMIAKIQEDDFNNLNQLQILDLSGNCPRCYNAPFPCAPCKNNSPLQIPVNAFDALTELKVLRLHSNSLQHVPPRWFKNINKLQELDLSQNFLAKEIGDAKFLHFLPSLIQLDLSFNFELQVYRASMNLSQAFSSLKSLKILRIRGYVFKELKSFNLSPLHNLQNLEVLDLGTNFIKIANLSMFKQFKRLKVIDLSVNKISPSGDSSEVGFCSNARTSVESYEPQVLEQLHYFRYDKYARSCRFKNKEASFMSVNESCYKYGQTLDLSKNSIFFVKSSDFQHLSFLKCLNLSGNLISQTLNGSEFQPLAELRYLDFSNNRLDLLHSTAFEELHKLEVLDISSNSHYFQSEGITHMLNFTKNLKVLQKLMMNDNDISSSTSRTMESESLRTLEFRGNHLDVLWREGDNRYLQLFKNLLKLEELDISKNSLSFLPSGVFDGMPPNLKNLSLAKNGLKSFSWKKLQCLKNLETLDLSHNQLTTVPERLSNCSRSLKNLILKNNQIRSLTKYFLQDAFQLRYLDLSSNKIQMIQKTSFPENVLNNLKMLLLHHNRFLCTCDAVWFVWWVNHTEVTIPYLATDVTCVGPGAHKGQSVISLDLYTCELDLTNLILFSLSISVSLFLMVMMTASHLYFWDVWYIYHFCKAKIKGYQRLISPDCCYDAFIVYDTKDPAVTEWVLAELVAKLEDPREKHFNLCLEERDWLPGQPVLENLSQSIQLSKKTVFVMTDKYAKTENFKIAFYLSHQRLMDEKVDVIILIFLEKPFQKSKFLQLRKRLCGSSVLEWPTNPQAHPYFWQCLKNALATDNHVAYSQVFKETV
Another test concerns the target human TLR8 (Homo sapiens (Human), UniProt Q9NR97). Nature of the test: TLR8 inhibition reporter assay (HEK-Blue cells, SEAP reporter, R848 stimulation).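 Also: compounds tested from 0.05 nM to 50 µM, 22 h at 37 °C, SEAP measured with HEK-Blue Detection, inhibition relative to agonist plus DMSO versus a known inhibitor.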
Setting [1] is: read-out: TLR9 IC50, HEK-Blue cells overexpressing human TLR9, ODN2006 5 nM.
The mark [2] stands for this setting: HEK-Blue cells overexpressing human TLR7, gardiquimod 7.5 μM.
Where [3] appears, read: read-out: TLR8 IC50, HEK-Blue cells overexpressing human TLR8, R848 15.9 μM.
[4] abbreviates: read-out: TLR9 IC50, HEK-Blue cells, ODN2006 5 nM.
The mark [5] stands for this setting: HEK-Blue cells, gardiquimod 7.5 μM.
Setting [6] is: read-out: TLR8 IC50, HEK-Blue cells, R848 15.9 μM.

Where two headings read alike, the source gives them in different places. Where only a bound is given, the exact number is not on record here.

Broadly, the IC50 is the concentration at which inhibition is half-maximal.

Sequence of human TLR9 (Q9NR96 26-1032): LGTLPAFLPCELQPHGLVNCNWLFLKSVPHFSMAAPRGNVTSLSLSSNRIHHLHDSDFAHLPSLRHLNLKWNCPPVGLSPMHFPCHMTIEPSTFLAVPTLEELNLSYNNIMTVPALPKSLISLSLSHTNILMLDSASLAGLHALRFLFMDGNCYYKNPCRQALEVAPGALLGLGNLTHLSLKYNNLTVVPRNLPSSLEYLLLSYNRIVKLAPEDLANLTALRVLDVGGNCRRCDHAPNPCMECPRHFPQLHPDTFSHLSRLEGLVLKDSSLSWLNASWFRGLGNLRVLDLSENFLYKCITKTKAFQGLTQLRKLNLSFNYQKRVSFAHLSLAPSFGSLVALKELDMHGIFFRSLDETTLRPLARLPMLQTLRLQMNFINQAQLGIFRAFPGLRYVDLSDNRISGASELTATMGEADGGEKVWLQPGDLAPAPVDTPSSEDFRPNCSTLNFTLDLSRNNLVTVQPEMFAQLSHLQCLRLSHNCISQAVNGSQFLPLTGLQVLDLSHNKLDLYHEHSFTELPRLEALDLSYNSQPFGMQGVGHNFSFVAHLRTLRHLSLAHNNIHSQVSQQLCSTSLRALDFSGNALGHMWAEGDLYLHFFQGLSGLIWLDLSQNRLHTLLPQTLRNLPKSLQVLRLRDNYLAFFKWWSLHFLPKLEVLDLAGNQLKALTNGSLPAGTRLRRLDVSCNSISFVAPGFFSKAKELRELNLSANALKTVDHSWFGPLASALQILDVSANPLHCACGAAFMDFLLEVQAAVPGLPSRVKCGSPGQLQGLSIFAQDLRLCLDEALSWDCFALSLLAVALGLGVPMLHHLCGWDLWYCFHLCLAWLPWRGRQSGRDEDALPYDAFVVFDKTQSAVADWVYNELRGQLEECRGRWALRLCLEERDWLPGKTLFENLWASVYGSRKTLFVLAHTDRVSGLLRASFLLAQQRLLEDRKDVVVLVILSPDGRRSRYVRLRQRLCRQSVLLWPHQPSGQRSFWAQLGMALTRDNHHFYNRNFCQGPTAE
Sequence of human TLR8 (Q9NR97 27-1041): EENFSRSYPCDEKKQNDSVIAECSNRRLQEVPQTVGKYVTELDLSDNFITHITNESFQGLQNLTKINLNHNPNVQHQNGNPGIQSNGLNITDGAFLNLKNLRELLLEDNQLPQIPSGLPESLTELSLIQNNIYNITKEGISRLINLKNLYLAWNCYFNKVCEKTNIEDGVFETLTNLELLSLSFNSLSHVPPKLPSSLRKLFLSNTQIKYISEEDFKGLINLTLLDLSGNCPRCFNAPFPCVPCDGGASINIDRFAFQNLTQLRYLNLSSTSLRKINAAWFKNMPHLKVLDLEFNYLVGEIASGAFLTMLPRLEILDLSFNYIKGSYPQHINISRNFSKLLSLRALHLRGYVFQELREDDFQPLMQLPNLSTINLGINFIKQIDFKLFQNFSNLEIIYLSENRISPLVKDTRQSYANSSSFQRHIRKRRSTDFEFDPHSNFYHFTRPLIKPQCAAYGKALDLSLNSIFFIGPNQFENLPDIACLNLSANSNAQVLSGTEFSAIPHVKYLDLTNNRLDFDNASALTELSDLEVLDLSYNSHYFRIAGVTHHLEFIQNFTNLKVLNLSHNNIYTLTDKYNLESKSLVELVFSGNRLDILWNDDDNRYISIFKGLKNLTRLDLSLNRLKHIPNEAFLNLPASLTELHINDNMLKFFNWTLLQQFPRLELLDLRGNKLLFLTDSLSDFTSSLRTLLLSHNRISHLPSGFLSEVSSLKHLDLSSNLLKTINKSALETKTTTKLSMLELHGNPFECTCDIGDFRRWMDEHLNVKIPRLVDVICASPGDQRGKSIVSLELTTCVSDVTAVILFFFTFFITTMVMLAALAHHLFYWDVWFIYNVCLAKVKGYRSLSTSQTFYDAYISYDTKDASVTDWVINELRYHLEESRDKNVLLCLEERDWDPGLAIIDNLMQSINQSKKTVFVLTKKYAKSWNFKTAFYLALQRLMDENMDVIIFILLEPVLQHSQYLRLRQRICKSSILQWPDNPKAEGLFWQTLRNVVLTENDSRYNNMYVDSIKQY

On to `CCN(CCO)C(=O)CN1CCC(c2ccc3[nH]c(-c4cc(C)nc(C)c4)c(C(C)C)c3c2)CC1` [Example 294, 2-(4-(2-(2,6-dimethylpyridin-4-yl)-3-isopropyl-1H-indol-5-yl)piperidin-1-yl)-N-ethyl-N-(2-hydroxyethyl)acetamide], for which the IC50 on human TLR9 (setting [1]) worked out at 1880 nM; against human TLR7 (setting [2]), 14.1 nM; on human TLR8 (setting [3]), 58.3 nM.

Take `CCc1c(-c2ccnc(O)c2)[nH]c2ccc(C3CCN(C4CCN(CC(C)C)CC4)CC3)cc12` [Example 765, 4-(3-ethyl-5-(1′-isobutyl-[1,4′-bipiperidin]-4-yl)-1H-indol-2-yl)pyridin-2-ol]: the IC50 was found to be 181 nM on human TLR9 (setting [1]), 11000 nM against human TLR7 (setting [2]) and 341 nM at human TLR8 (setting [3]).

For the molecule `Cc1cc(-c2[nH]c3ccc(C4CCN(CC(=O)N(C)C(C)(C)C)CC4)cc3c2C(C)C)cc(C)n1` [Example 250, N-(tert-butyl)-2-(4-(2-(2,6-dimethylpyridin-4-yl)-3-isopropyl-1H-indol-5-yl)piperidin-1-yl)-N-methylacetamide], the IC50 on human TLR9 (setting [1]) was determined as 1200 nM; on human TLR7 (setting [2]), 11.7 nM; on human TLR8 (setting [3]), 36.4 nM.

For the molecule `Cc1cc(-c2[nH]c3ccc(C4CCN(C5CCOCC5)CC4)cc3c2C(C)C)c(F)cn1` [Example 715, 2-(5-fluoro-2-methylpyridin-4-yl)-3-isopropyl-5-(1-(tetrahydro-2H-pyran-4-yl)piperidin-4-yl)-1H-indole], the IC50 on human TLR9 (setting [1]) was 2990 nM; against human TLR7 (setting [2]), 20.7 nM; on human TLR8 (setting [3]), 3.8 nM.

Regarding `COCCCN1CCC(c2ccc3[nH]c(-c4cc(C)nc(C)c4)c(C(C)C)c3c2)CC1` [Example 330, 2-(2,6-dimethylpyridin-4-yl)-3-isopropyl-5-(1-(3-methoxypropyl)piperidin-4-yl)-1H-indole], the IC50 was determined as 999 nM on human TLR9 (setting [1]), 3.7 nM against human TLR7 (setting [2]) and 4.2 nM on human TLR8 (setting [3]).

Turning to `Cc1cc(-c2[nH]c3ccc(C4CCNCC4O)cc3c2C(C)C)cc(C)n1` (single isomer, unassigned) [Example 488A, 4-(2-(2,6-dimethylpyridin-4-yl)-3-isopropyl-1H-indol-5-yl)piperidin-3-ol], the IC50 against human TLR9 (TLR9 IC50, HEK-Blue cells overexpressing human TLR9, ODN2006 5 nM) stood at 240 nM; against human TLR7 (setting [2]), 2.7 nM; on human TLR8 (TLR8 IC50, HEK-Blue cells overexpressing human TLR8, R848 15.9 μM), 21 nM.

With `CC(C)c1c(-c2ccnc(N)c2)[nH]c2ccc(C3CCNCC3)cc12` [Example 8, 4-(3-isopropyl-5-(piperidin-4-yl)-1H-indol-2-yl)pyridin-2-amine], the IC50 was found to be 160 nM at human TLR9 (setting [1]), 34.4 nM against human TLR7 (setting [2]) and 28.8 nM on human TLR8 (setting [3]).

Turning to `Cc1cc(-c2[nH]c3ccc(C4CCN(C(=O)CNCCC(C)O)CC4)cc3c2C(C)C)cc(C)n1` (stereo not drawn) [Example 369, 1-(4-(2-(2,6-dimethylpyridin-4-yl)-3-isopropyl-1H-indol-5-yl)piperidin-1-yl)-2-((3-hydroxybutyl)amino)ethan-1-one], the IC50 turned out to be 1060 nM on human TLR9 (setting [1]), 10.3 nM on human TLR7 (setting [2]) and 93.8 nM on human TLR8 (setting [3]).

As to `Cc1cc(-c2[nH]c3ccc(C4CCN(C(=O)C(=O)N5CCNCC5)CC4)cc3c2C(C)C)cc(C)n1` [Example 857, 1-(4-(2-(2,6-dimethylpyridin-4-yl)-3-isopropyl-1H-indol-5-yl)piperidin-1-yl)-2-(piperazin-1-yl)ethane-1,2-dione], the IC50 is 441 nM at human TLR9 (setting [4]), 1.3 nM against human TLR7 (setting [5]) and 13.6 nM on human TLR8 (setting [6]).

In the case of `Cc1cc(-c2[nH]c3ccc(C4CCN(CC(=O)NC(C)C)CC4)cc3c2C(C)C)cc(C)n1` [Example 218, 2-(4-(2-(2,6-dimethylpyridin-4-yl)-3-isopropyl-1H-indol-5-yl)piperidin-1-yl)-N-isopropylacetamide], the concentration for half-maximal inhibition (IC50) at human TLR9 (setting [1]) turned out to be 949 nM; at human TLR7 (setting [2]), 4.9 nM; at human TLR8 (setting [3]) it was 10.5 nM.

As for `Cc1cc(-c2[nH]c3ccc(C4CCN(C5CCOC5)CC4)cc3c2C(C)C)c(F)cn1` (stereo not drawn) [Example 725, 2-(5-fluoro-2-methylpyridin-4-yl)-3-isopropyl-5-(1-(tetrahydrofuran-3-yl)piperidin-4-yl)-1H-indole], the figures for the IC50 at human TLR9 (setting [1]), on human TLR7 (setting [2]) and on human TLR8 (setting [3]) were 2990 nM, 3 nM and 4.5 nM, respectively.

In the case of `Cc1cc(-c2[nH]c3ccc(C4CCN(CC(C)(C)O)CC4)cc3c2C(C)C)cc(C)n1` [Example 848, 1-(4-(2-(2,6-dimethylpyridin-4-yl)-3-isopropyl-1H-indol-5-yl)piperidin-1-yl)-2-methylpropan-2-ol], the IC50 at human TLR9 (setting [4]) is 398 nM; on human TLR7 (setting [5]), 2.3 nM; on human TLR8 (setting [6]) it was 1.7 nM.

For `Cc1cc(-c2[nH]c3ccc(C4CCN(C(=O)CNCC(C)(C)C)CC4)cc3c2C(C)C)cc(C)n1` [Example 337, 1-(4-(2-(2,6-dimethylpyridin-4-yl)-3-isopropyl-1H-indol-5-yl)piperidin-1-yl)-2-(neopentylamino)ethan-1-one], the IC50 turned out to be 467 nM on human TLR9 (setting [1]), 6.7 nM against human TLR7 (setting [2]) and 18.3 nM on human TLR8 (setting [3]).

`Cc1cc(-c2[nH]c3ccc(C4CCN(CC#N)CC4)cc3c2C(C)C)cc(C)n1` [Example 312, 2-(4-(2-(2,6-dimethylpyridin-4-yl)-3-isopropyl-1H-indol-5-yl)piperidin-1-yl)acetonitrile]: the IC50 stood at 1390 nM on human TLR9 (setting [1]), 5.4 nM against human TLR7 (setting [2]) and 14 nM at human TLR8 (setting [3]).

Regarding `Cc1cc(-c2[nH]c3ccc(C4CCN(CC(=O)N5CCCC(F)(F)C5)CC4)cc3c2C(C)C)cc(C)n1` [Example 285, 1-(3,3-difluoropiperidin-1-yl)-2-(4-(2-(2,6-dimethylpyridin-4-yl)-3-isopropyl-1H-indol-5-yl)piperidin-1-yl)ethan-1-one], the IC50 turned out to be 423 nM on human TLR9 (setting [1]), 4 nM on human TLR7 (setting [2]) and 13.9 nM at human TLR8 (setting [3]).

Take `Cc1cc(-c2[nH]c3ccc(C4CCN(CC(=O)NC5(C)CCC5)CC4)cc3c2C(C)C)cc(C)n1` [Example 243, 2-(4-(2-(2,6-dimethylpyridin-4-yl)-3-isopropyl-1H-indol-5-yl)piperidin-1-yl)-N-(1-methylcyclobutyl)acetamide]: the IC50 on human TLR9 (setting [1]) turned out to be 817 nM; against human TLR7 (setting [2]) it was 10 nM; on human TLR8 (setting [3]), 20 nM.

With `Cc1cc(-c2[nH]c3ccc(C4CCN(S(=O)(=O)c5cccnc5)CC4)cc3c2C(C)C)ccn1` [Example 543, 3-isopropyl-2-(2-methylpyridin-4-yl)-5-(1-(pyridin-3-ylsulfonyl)piperidin-4-yl)-1H-indole], the IC50 at human TLR9 (setting [1]) came to 9750 nM; at human TLR7 (setting [2]), 119 nM; on human TLR8 (setting [3]), 206 nM.

With `CC(C)c1c(-c2ccnc(C(C)(C)O)c2)[nH]c2ccc(C3CCNCC3)cc12` [Example 58, 2-(4-(3-isopropyl-5-(piperidin-4-yl)-1H-indol-2-yl)pyridin-2-yl)propan-2-ol], the IC50 worked out at 888 nM on human TLR9 (setting [1]), 31.2 nM against human TLR7 (setting [2]) and 667 nM at human TLR8 (setting [3]).

As to `Cc1cc(-c2[nH]c3ccc(C4CCN(S(=O)(=O)C5CC5)CC4)cc3c2C(C)C)ccn1` [Example 555, 5-(1-(cyclopropylsulfonyl)piperidin-4-yl)-3-isopropyl-2-(2-methylpyridin-4-yl)-1H-indole], the IC50 is over 50000 nM on human TLR9 (setting [1]), 34.9 nM against human TLR7 (setting [2]) and 92.1 nM at human TLR8 (setting [3]).

On to `Cc1cc(-c2[nH]c3ccc(C4CCN(C(=O)CN(CCO)Cc5ccccc5)CC4)cc3c2C(C)C)cc(C)n1` [Example 396, 2-(benzyl(2-hydroxyethyl)amino)-1-(4-(2-(2,6-dimethylpyridin-4-yl)-3-isopropyl-1H-indol-5-yl)piperidin-1-yl)ethan-1-one], for which the IC50 on human TLR9 (setting [1]) worked out at 1600 nM; at human TLR7 (setting [2]), 4.4 nM; at human TLR8 (setting [3]) it was 55.2 nM.

In the case of `CCc1c(-c2ccnc(C(=O)OC)c2)[nH]c2ccc(C3CCN(C4CCN(CC(C)C)CC4)CC3)cc12` [Example 762, methyl 4-(3-ethyl-5-(1′-isobutyl-[1,4′-bipiperidin]-4-yl)-1H-indol-2-yl)picolinate], the 50% inhibitory concentration (IC50) was determined as 223 nM on human TLR9 (setting [1]), 708 nM against human TLR7 (setting [2]) and 14.3 nM on human TLR8 (setting [3]).

On to `Cc1cc(-c2[nH]c3ccc(C4CCN(Cc5nnc(C6CC6)o5)CC4)cc3c2C(C)C)cc(C)n1` [Example 448, 2-cyclopropyl-5-((4-(2-(2,6-dimethylpyridin-4-yl)-3-isopropyl-1H-indol-5-yl)piperidin-1-yl)methyl)-1,3,4-oxadiazole], for which the IC50 on human TLR9 (setting [1]) is 47400 nM; against human TLR7 (setting [2]) it was 51.2 nM; on human TLR8 (setting [3]) it was 55.6 nM.

In the case of `Cc1cc(-c2[nH]c3ccc(C4CCN(CC(O)c5ccccc5)CC4)cc3c2C(C)C)ccn1` (stereo not drawn) [Example 662, 2-(4-(3-isopropyl-2-(2-methylpyridin-4-yl)-1H-indol-5-yl)piperidin-1-yl)-1-phenylethan-1-ol], the IC50 is 1150 nM at human TLR9 (setting [1]), 60.6 nM on human TLR7 (setting [2]) and 29.6 nM on human TLR8 (setting [3]).

Regarding `Cc1cc(-c2[nH]c3ccc(C4CCN(CC(=O)NCC#N)CC4)cc3c2C(C)C)cc(C)n1` [Example 239, N-(cyanomethyl)-2-(4-(2-(2,6-dimethylpyridin-4-yl)-3-isopropyl-1H-indol-5-yl)piperidin-1-yl)acetamide], the IC50 was determined as 1590 nM at human TLR9 (setting [1]), 6.7 nM against human TLR7 (setting [2]) and 8.9 nM at human TLR8 (setting [3]).

Consider `Cc1cc(-c2[nH]c3ccc(C4CCN(C(=O)CN(C)C)CC4)cc3c2C2CC2)cc(C)n1` [Example 590, 1-(4-(3-cyclopropyl-2-(2,6-dimethylpyridin-4-yl)-1H-indol-5-yl)piperidin-1-yl)-2-(dimethylamino)ethan-1-one], for which the IC50 on human TLR9 (setting [1]) was found to be 142 nM; against human TLR7 (setting [2]), 4.2 nM; at human TLR8 (setting [3]) it was 18.4 nM.

Values taken from patent US10660877B2 (BRISTOL-MYERS SQUIBB COMPANY, priority 2016, dated 2020).
